This is an account of results in patent US4304903A, “D-Erythro-2,3-dihydroxy-1-(1-phenyl-1H-pyrazolo(3,4-b)quinoxalin-3-y l)-propyl-4-O-α-D-glucopyranosyl-alpha-D-glucopyranoside poly(H-sulfate)salts” (American Cyanamid Company, priority 1980, dated 1981).

Molecules are shown by their SMILES. Counter-ions that a name gives are not always drawn. Like-named read-outs stand apart in the source and are kept apart here.

The term inhibition denotes the drop in the measured response relative to a control, in per cent.

For assay [1], the system named is late components of human complement (C3-C9). Put plainly: Test Code 035 (C3-C9 inhibitor). Type of assay: biochemical. More on the design: key: N = Inactive. The conditions noted are these: serial twofold dilution assay; higher well number indicates higher activity; lysis of EAC 142. An excerpt:
(§1) An active inhibitor protects C2 from C1 and C4; (ii) Test Code 035 (C3-C9 inhibitor)--This test determines the ability of the late components of human complement (C3-C9) to lyse EAC 142 in the presence of appropriate dilutions of the test compound. An active inhibitor protects EAC 142 from lysis by human C3-C9; (iii) Test Code 036 (C-Shunt inhibitor)--In this test human erythrocytes rendered fragile are lysed in autologous serum via the shunt pathway activated by cobra venom factor in the presence of appropriate dilutions of the test compound. Inhibition of the shunt pathway results in failure of lysis; (iv) Forssman Vasculitis Test--Here, the well known complement dependent lesion, Forssman vasculitis, is produced in guinea pigs by intradermal injection of rabbit anti-Forssman antiserum. […] Percent inhibition is calculated by comparison with simultaneous controls. […]

Assay [2] has as its system serum complement activity. Put plainly: Guinea Pig Intraperitoneal Test (GPIP). The assay is classed as in vivo. The conditions noted are these: Cavia porcellus, ip, 200 mg./kg. i.p. From the text: An active inhibitor protects C2 from C1 and C4; (ii) Test Code 035 (C3-C9 inhibitor)--This test determines the ability of the late components of human complement (C3-C9) to lyse EAC 142 in the presence of appropriate dilutions of the test compound. An active inhibitor protects EAC 142 from lysis by human C3-C9; (iii) Test Code 036 (C-Shunt inhibitor)--In this test human erythrocytes rendered fragile are lysed in autologous serum via the shunt pathway activated by cobra venom factor in the presence of appropriate dilutions of the test compound. Inhibition of the shunt pathway results in failure of lysis; (iv) Forssman Vasculitis Test--Here, the well known complement dependent lesion, Forssman vasculitis, is produced in guinea pigs by intradermal injection of rabbit anti-Forssman antiserum. The lesion is measured in terms of diameter, edema and hemorrhage and the extent to which a combined index of these is inhibited by prior intraperitoneal injection of the test compound at 200 mg./kg. is then reported, unless otherwise stated; (v) Forssman Shock Test--Lethal shock is produced in guinea pigs by an i.v. injection of anti-Forssman antiserum and the harmonic mean death time of treated guinea pigs is compared with that of simultaneous controls; (vi) Complement Level Reduction Test--In this test, the above dosed guinea pigs, or others, are bled for serum and the complement level is determind in undiluted serum by the capillary tube method of U.S. Pat. No. 3,876,376 and compared to undosed control guinea pigs; (vii) Cap 50 Test--Here, appropriate amounts of the test compound are added to a pool of quinea Pig serum in vitro, after which the undiluted serum capillary tube assay referred to above is run. The concentration of compound inhibiting 50% is reported; (viii) Guinea Pig Intraperitoneal Test (GPIP)--Guinea pigs weighing about 300 g. are dosed intraperitoneally (i.p.) with 200 mg./kg. of the test compound dissolved in saline and adjusted to pH 7-8. […] Percent inhibition is calculated by comparison with simultaneous controls. […]

The target in a further assay is T1, activated human C1 (Homo sapiens, UniProt P09871).
T1 sequence (P09871 16-437 limits assumed): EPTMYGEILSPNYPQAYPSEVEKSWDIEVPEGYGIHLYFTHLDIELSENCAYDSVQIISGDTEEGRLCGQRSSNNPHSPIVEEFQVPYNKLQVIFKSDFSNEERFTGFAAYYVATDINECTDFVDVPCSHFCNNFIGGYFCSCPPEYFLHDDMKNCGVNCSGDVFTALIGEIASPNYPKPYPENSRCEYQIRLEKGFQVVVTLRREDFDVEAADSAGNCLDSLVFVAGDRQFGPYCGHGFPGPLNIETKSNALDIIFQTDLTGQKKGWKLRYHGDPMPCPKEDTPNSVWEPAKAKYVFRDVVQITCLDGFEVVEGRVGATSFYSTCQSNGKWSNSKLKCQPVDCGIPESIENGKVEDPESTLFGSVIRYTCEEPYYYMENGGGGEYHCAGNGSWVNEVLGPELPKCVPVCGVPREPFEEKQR
T1 sequence (P09871 438-688 limits assumed): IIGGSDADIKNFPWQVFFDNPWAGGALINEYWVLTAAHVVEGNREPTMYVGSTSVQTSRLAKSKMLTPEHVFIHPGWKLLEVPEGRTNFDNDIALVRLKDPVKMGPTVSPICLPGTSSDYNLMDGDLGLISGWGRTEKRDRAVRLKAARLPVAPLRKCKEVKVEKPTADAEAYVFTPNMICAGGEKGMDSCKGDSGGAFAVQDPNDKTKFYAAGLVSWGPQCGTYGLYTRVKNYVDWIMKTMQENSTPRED
The experiment in a line: Test Code 026 (C1 inhibitor). Type of assay: biochemical. The conditions noted are these: serial twofold dilution assay; higher well number indicates higher activity.
Source text: as §1

Take `O=S(=O)(O)OC[C@H]1O[C@H](O[C@@H](c2nn(-c3ccccc3)c3nc4ccccc4nc23)[C@@H](COS(=O)(=O)O)OS(=O)(=O)O)[C@H](OS(=O)(=O)O)[C@@H](OS(=O)(=O)O)[C@@H]1O[C@H]1O[C@H](COS(=O)(=O)O)[C@@H](OS(=O)(=O)O)[C@H](OS(=O)(=O)O)[C@H]1OS(=O)(=O)O` [D-Erythro-2,3-dihydroxy-1-(1-phenyl-1H-pyrazolo[3,4-b]quinox] [D-Erythro-2,3-dihydroxy-1-(1-phenyl-1H-pyrazolo[3,4-b]quinoxalin-3-yl)propyl-4-O-α-D-glucopyranosyl-α-D-glucopyranoside, nonakis(H-sulfate), nonasalt with trimethylamine]: in assay [1], the “035 In Vitro Activity (activity in wells)” value was “N”.
Consider `O=S(=O)(O)OC[C@H]1O[C@H](O[C@@H](c2nn(-c3ccccc3)c3nc4ccccc4nc23)[C@@H](COS(=O)(=O)O)OS(=O)(=O)O)[C@H](OS(=O)(=O)O)[C@@H](OS(=O)(=O)O)[C@@H]1O[C@H]1O[C@H](COS(=O)(=O)O)[C@@H](OS(=O)(=O)O)[C@H](OS(=O)(=O)O)[C@H]1OS(=O)(=O)O` [D-Erythro-2,3-dihydroxy-1-(1-phenyl-1H-pyrazolo[3,4-b]quinoxalin-3-yl)propyl-4-O-α-D-glucopyranosyl-α-D-glucopyranoside, nonakis(H-sulfate), nonasodium salt], for which the inhibition at 200 mg/kg in assay [2] (0.5 h, serum 30 minutes after injection, read-out: In Vivo Activity (Guinea Pig) (Intraperitoneal) % Inhibition, 30 minutes) is -58%; in assay [2] (1 h, serum 60 minutes after injection, read-out: In Vivo Activity (Guinea Pig) (Intraperitoneal) % Inhibition, 60 minutes) it was -56%; in assay [2] (2 h, serum 120 minutes after injection, read-out: In Vivo Activity (Guinea Pig) (Intraperitoneal) % Inhibition, 120 minutes), -76%.
For the compound `Cc1cc2nc3c([C@H](O[C@H]4O[C@H](COS(=O)(=O)O)[C@@H](O[C@H]5O[C@H](COS(=O)(=O)O)[C@@H](OS(=O)(=O)O)[C@H](OS(=O)(=O)O)[C@H]5OS(=O)(=O)O)[C@H](OS(=O)(=O)O)[C@H]4OS(=O)(=O)O)[C@@H](COS(=O)(=O)O)OS(=O)(=O)O)nn(-c4ccccc4)c3nc2cc1C` [D-Erythro-2,3-dihydroxy-1-(6,7-dimethyl-1-phenyl-1H-pyrazolo[3,4-b]quinoxalin-3-yl)propyl-4-O-α-D-glucopyranosyl-α-D-glucopyranoside, nonakis(H-sulfate), nonasalt with trimethylamine], the “026 In Vitro Activity (activity in wells)” value on activated human C1 is “+5 wells”. For the same compound, the “035 In Vitro Activity (activity in wells)” value in assay [1] is “+1 wells”.
